One experiment deals with CSF1R (M-NFS-60 cells). The experiment can be described thus: Cell Titer-Glo viability assay using M-NFS-60 cells. The settings on record: Mus musculus, read-out: Cellular CSF1R activity by M-NFS-60 viability assay (IC50 activity range). It counts as cell-based. Here is the method:
M-NFS-60 cells were cultured in RPMI-1640 medium containing 10% FBS, 0.05 mM 2-Mercaptoethanol, penicillin (100 U/ml)/streptomycin ([…]) and supplemented with 62 ng/ml recombinant human M-CSF at 37° C./5% CO2. Aliquots of the cells were seeded into a 96-well plate (2×10^5 cells in 100 μl/well) and then incubated at 37° C./5% CO2 1 h. Dissolve compound in 100% DMSO to make 10 mM stock solutions (Aliquots stored in the Nitrogen Cabinet). Dilute 10 mM compounds solutions for 2-fold in 100% DMSO to get 5 mM solutions (10 μl+10 μl DMSO), and then make a 3-fold serial dilution (10 μl+20 μl DMSO) for 10 doses. For reference compounds: Dilute 10 mM compounds solutions for 20-fold in 100% DMSO to get 0.5 mM solutions (2 μl+38 μl DMSO), and then make a 3-fold serial dilution (10 μl+20 μl DMSO) for 8 doses. The 96-well plate was equilibrated at room temperature for 30 min. 50 μl of CellTiter-Glo® Reagent added to each well and mixed for 2 min on an orbital shaker to induce cell lysis. The 96-well plate was incubated at room temperature for 10 min to stabilize luminescent signal. Luminescent was measured […] by EnVison plate reader. Calculations and Formulas: The following calculations and formulas are used for data analysis using XL Fit software: The curve fitting was made using the Sigmoidal Dose-Response Model (Fit model, 205).
Background: ATP-based viability assays read luminescence as a measure of living cells.

Another experiment addresses T1, Axl (Homo sapiens, UniProt P30530).
T1 sequence (P30530 26-894): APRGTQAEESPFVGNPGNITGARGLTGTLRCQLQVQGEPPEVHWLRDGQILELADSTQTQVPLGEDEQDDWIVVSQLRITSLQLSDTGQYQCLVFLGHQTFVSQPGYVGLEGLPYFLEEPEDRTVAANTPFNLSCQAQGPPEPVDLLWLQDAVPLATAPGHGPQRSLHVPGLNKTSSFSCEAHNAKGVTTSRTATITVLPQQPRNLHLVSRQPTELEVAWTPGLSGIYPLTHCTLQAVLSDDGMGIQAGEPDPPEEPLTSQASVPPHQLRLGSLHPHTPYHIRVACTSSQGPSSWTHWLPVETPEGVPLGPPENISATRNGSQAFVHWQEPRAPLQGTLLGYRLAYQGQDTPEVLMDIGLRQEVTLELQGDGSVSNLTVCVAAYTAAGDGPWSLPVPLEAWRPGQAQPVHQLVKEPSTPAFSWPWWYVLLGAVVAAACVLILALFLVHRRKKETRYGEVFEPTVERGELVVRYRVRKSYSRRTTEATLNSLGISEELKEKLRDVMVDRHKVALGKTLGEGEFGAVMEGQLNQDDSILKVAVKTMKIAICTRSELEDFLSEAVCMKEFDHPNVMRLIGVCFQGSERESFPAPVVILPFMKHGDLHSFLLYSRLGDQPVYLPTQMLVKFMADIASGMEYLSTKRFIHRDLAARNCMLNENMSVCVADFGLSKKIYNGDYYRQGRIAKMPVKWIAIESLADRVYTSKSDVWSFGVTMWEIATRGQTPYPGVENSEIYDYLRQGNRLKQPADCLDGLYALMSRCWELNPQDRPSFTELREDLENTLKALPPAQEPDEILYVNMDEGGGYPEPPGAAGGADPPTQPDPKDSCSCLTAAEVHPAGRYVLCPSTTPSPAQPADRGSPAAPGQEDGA
Kind of experiment: Cellular Axl inhibition ELISA (p-Axl, Gas6-induced) using H1299 cells. It counts as cell-based. The arrangement: especially H1299 cell endogenously expresses Axl; endogenous in cells; host or cells: H1299. On the procedure:
Axl is expressed in several of malignant cancer cells; especially H1299 cell endogenously expresses Axl; and an increased phosphorylation of Axl (p-Axl) can be observed, when induced by the Axl ligand, Ga6.
The H1299 cells should be 40-80% confluent in the cell culture flask. Then cells are washed with DPBS and trypsinized. After centrifugation, the cell pellet is re-suspended with pre-warmed culture medium (RPMI1640, 10% FBS) and cells are separated by pipetting 6 times up and down with a 10 ml serological pipette. The cell suspension was diluted to a final concentration of 1.25×10^5 cells/ml. Then 80 μl/well cell suspension is added to the plate. Cell-plates are incubated at 37° C./5% CO2 overnight. Compounds were dissolved by DMSO to 10 mM, and kept in nitrogen cabinet. Prepare the compounds stock plate, the reference compounds concentration starts at 0.50 mM (5 μl+95 μl DMSO), and the tested compounds start at 1.5 mM (6 μl+34 μl DMSO); Then make a 3-fold dilution series (10 doses) compounds. Then dilute compounds by the medium in the mid plate (2 μl compounds+198 μl medium). Transfer 20 μl diluted compounds from mid plate to the cell coated plate. Cell-plates are incubated at 37° C./5% CO2 for 24 h. Add 25 μl of Human Gas6 (1000 ng/ml) to 96-well plate; the final concentration of Human Gas6 is 200 ng/ml. Incubate the plates at 37° C./5% CO2 for 1 h. Remove medium and wash cells once with 300 ul/well ice-cold 1×PBS. Then remove PBS and add 100 μl/well ice-cold 1× Cell Lysis Buffer to 96-well plate. The plate is shaken for 40 min at 4° C. Then plates can be stored at −20° C. After the micro-wells strips have reached room temperature, break off the required number of micro-wells. Place the micro-wells in the strip holder. Unused micro-wells must be resealed and stored at 4° C. immediately. Add 60 μl of cell lysate to the appropriate well. Seal with tape and press firmly onto top of micro-wells. Incubate the plate at 37° C. for 2 h. Gently remove the tape and wash wells 5 times with 1× Wash Buffer, 300 μl each time for each well. Add 100 μl of reconstituted Detection Antibody (green color) to each well. Seal with tape and incubate the plate at 37° C. for 1 h. Repeat wash procedure. Add 100 μl of reconstituted HRP Linked secondary antibody to each well. Seal with tape and incubate the plate at 37° C. for 30 min. Repeat wash procedure. Add 100 μl of TMB Substrate to each well. Seal with tape and incubate the plate at 37° C. for 15 min. Add 100 μl of STOP Solution to each well. Shake gently for a few seconds. Read absorbance at 450 nm within 30 min after adding STOP Solution. Calculations and Formulas: The following calculations and formulas are used for data analysis using XL Fit software: The curve fitting was made using the Sigmoidal Dose-Response Model (Fit model, 205).

Setting [1] is: read-out: Cellular Axl activity by H1299 Elisa (IC50).

pIC50: −log10 of the molar value. Read-outs that look alike come from different tables or passages of the source. Bounds are passed on as bounds.

In the case of `COc1cc2nccc(Oc3ccc(NC(=O)c4nn(C5CC5)cc4OCCF)nc3)c2cc1OC` [Compound 110], the pIC50 in the experiment with CSF1R (M-NFS-60 cells) is more than 6.00; on Axl (setting [1]) it was more than 6.30.
With `COc1cc2nccc(Oc3ccc(NC(=O)c4nn(C5CC5)cc4OC(C)C)nn3)c2cc1OC` [Compound 147], the pIC50 with CSF1R (M-NFS-60 cells) was 5.00 to 6.00; at Axl (setting [1]), more than 6.30.
As to `CNCCn1cc(OCC(F)(F)F)c(C(=O)Nc2ccc(Oc3ccnc4cc(OC)c(OC)cc34)c(C)c2)n1` [Compound 156], the pIC50 is 5.00 to 6.00 in the experiment on CSF1R (M-NFS-60 cells) and not above 6.00 on Axl (setting [1]).
For `CCCn1cc(OCC2COC2)c(C(=O)Nc2ccc(Oc3ccnc4cc(OC)c(OC)cc34)cn2)n1` [Compound 106], the pIC50 is more than 6.00 in the experiment with CSF1R (M-NFS-60 cells) and more than 6.30 at Axl (setting [1]).
On to `CCCn1cc(OCC2CCOCC2)c(C(=O)Nc2ccc(Oc3ccnc4cc(OC)c(OC)cc34)cn2)n1` [Compound 164], for which the pIC50 in the experiment with CSF1R (M-NFS-60 cells) is not above 5.00; on Axl (setting [1]), more than 6.30.
For `CNCCn1cc(OCC(F)(F)F)c(C(=O)Nc2ccc(Oc3ccnc4cc(OC)c(OC)cc34)cc2F)n1` [Compound 154] the same measures were 5.00 to 6.00 and 6.00 to 6.30.
Consider `COc1cc2nccc(Oc3ccc(NC(=O)c4nn(C5CC5)cc4NCCC(F)(F)F)nc3)c2cc1OC` [Compound 142], for which the values for the pIC50 with CSF1R (M-NFS-60 cells) and at Axl (setting [1]) were 5.00 to 6.00 and more than 6.30, respectively.
Consider `COc1cc2nccc(Oc3ccc(NC(=O)c4nn(CCOC5CC5)cc4OCC(F)(F)F)cc3)c2cc1OC` [Compound 118], for which the pIC50 in the experiment with CSF1R (M-NFS-60 cells) is 5.00 to 6.00; at Axl (setting [1]), more than 6.30.
`COc1cc2nccc(Oc3ccc(NC(=O)c4nn(CCOC5CC5)cc4OCC(F)(F)F)c(F)c3)c2cc1OC` [Compound 115]: the pIC50 was 5.00 to 6.00 in the experiment with CSF1R (M-NFS-60 cells) and more than 6.30 on Axl (setting [1]).
In the case of `COc1cc2nccc(Oc3ccc(NC(=O)c4nn(CCOC5CC5)cc4OCC(F)(F)F)cc3F)c2cc1OC` [Compound 116], the values for the pIC50 in the experiment with CSF1R (M-NFS-60 cells) and at Axl (setting [1]) were 5.00 to 6.00 and more than 6.30, respectively.
For the molecule `CCn1cc(OCC(F)(F)F)c(C(=O)Nc2ccc(Oc3ccnc4cc(OC)c(OC)cc34)cn2)n1` [Compound 4], the pIC50 in the experiment with CSF1R (M-NFS-60 cells) was more than 6.00; at Axl (Elisa, comparison of compounds of present invention (**) vs compounds of WO2016/166250 (*), read-out: Cellular activity Axl (H1299) (IC50)), 8.47; at Axl (setting [1]) it was more than 6.30.
As for `COc1cc2nccc(Oc3ccc(NC(=O)c4nn(C5CCN(C)C5)cc4OCC(F)(F)F)cc3C)c2cc1OC` (stereo not drawn) [Compound 98], the pIC50 in the experiment on CSF1R (M-NFS-60 cells) was 5.00 to 6.00; on Axl (setting [1]), not above 6.00.
For `COc1cc2nccc(Oc3ccc(NC(=O)c4nn(C5CCCC5)cc4OCC(F)(F)F)nn3)c2cc1OC` [Compound 121] the same measures were more than 6.00 and more than 6.30.
As for `COc1cc2nccc(Oc3ccc(NC(=O)c4nn(C5CC5)cc4NCC(F)(F)F)nc3)c2cc1OC` [Compound 145], the pIC50 in the experiment on CSF1R (M-NFS-60 cells) was more than 6.00; on Axl (setting [1]) it was more than 6.30.
`CCCn1cc(OCC(F)(F)F)c(C(=O)Nc2ccc(Oc3ccnc4cc(OC)c(OC)cc34)c(C(F)(F)F)c2)n1` [Compound 114]: the pIC50 was 5.00 to 6.00 in the experiment on CSF1R (M-NFS-60 cells) and more than 6.30 at Axl (setting [1]).
On to `COc1cc2nccc(Oc3ccc(NC(=O)c4nn(CC(C)C)cc4OCC(F)(F)F)cn3)c2cc1OC` [Compound 103], for which the pIC50 in the experiment with CSF1R (M-NFS-60 cells) was 5.00 to 6.00; at Axl (setting [1]), more than 6.30.
`COc1cc2nccc(Oc3ccc(NC(=O)c4nn(CCN)cc4OCC(F)(F)F)cn3)c2cc1OC` [Compound 135]: the pIC50 is not above 5.00 with CSF1R (M-NFS-60 cells) and not above 6.00 at Axl (setting [1]).
In the case of `COc1cc2nccc(Oc3ccc(NC(=O)c4nn(CC5COC5)cc4OCC(F)(F)F)cc3F)c2cc1OC` [Compound 97], the pIC50 in the experiment on CSF1R (M-NFS-60 cells) was 5.00 to 6.00; at Axl (setting [1]), more than 6.30.
For the molecule `COc1cc2nccc(Oc3ccc(NC(=O)c4nn(CC(C)O)cc4OCCF)nc3)c2cc1OC` (stereo not drawn) [Compound 152], the pIC50 was more than 6.00 in the experiment with CSF1R (M-NFS-60 cells) and 6.00 to 6.30 on Axl (setting [1]).
Regarding `COc1cc2nccc(Oc3ccc(NC(=O)c4nn(C5CCOC5)cc4OCC(F)(F)F)nn3)c2cc1OC` (stereo not drawn) [Compound 128], the pIC50 in the experiment on CSF1R (M-NFS-60 cells) was 5.00 to 6.00; at Axl (setting [1]) it was more than 6.30.
The like results for `COc1cc2nccc(Oc3ccc(NC(=O)c4nn(C5CC5)cc4OCC(F)F)nn3)c2cc1OC` [Compound 162] were, in that order, 5.00 to 6.00 and more than 6.30.
On to `COc1cc2nccc(Oc3ccc(NC(=O)c4nn(C5CCN(C)C5)cc4OCC(F)(F)F)cn3)c2cc1OC` (stereo not drawn) [Compound 133], for which the pIC50 with CSF1R (M-NFS-60 cells) was 5.00 to 6.00; at Axl (setting [1]), not above 6.00.
With `CNCCn1cc(OCC(F)(F)F)c(C(=O)Nc2ccc(Oc3ccnc4cc(OC)c(OC)cc34)c(F)c2)n1` [Compound 155], the pIC50 with CSF1R (M-NFS-60 cells) is 5.00 to 6.00; at Axl (setting [1]), more than 6.30.
Regarding `COc1cc2nccc(Oc3ccc(NC(=O)c4nn(C5CCNC5)cc4OCC(F)(F)F)cn3)c2cc1OC` (stereo not drawn) [Compound 132], the pIC50 in the experiment with CSF1R (M-NFS-60 cells) is not above 5.00; at Axl (setting [1]) it was not above 6.00.
As to `COc1cc2nccc(Oc3ccc(NC(=O)c4nn(C5CC5)cc4OCC4CNC4)nc3)c2cc1OC` [Compound 144], the results for the pIC50 in the experiment with CSF1R (M-NFS-60 cells) and on Axl (setting [1]) were not above 5.00 and not above 6.00, respectively.
In the case of `COc1cc2nccc(Oc3ccc(NC(=O)c4nn(C5CC5)cc4OCC4CCC4)nn3)c2cc1OC` [Compound 149], the results for the pIC50 in the experiment on CSF1R (M-NFS-60 cells) and at Axl (setting [1]) were 5.00 to 6.00 and more than 6.30, respectively.
For `COc1cc2nccc(Oc3ccc(NC(=O)c4nn(C5CCN(C)C5)cc4OCC(F)(F)F)cc3F)c2cc1OC` (stereo not drawn) [Compound 96] the same measures were 5.00 to 6.00 and more than 6.30.
As to `COCCOc1cn(CC(C)O)nc1C(=O)Nc1ccc(Oc2ccnc3cc(OC)c(OC)cc23)cn1` (stereo not drawn) [Compound 150], the pIC50 in the experiment on CSF1R (M-NFS-60 cells) is 5.00 to 6.00; on Axl (setting [1]), more than 6.30.

One may read the pIC50 as the IC50 on a negative log10 scale, so that one unit is a factor of ten.
